Source: article PMC8764033, “Single-molecule analysis of specificity and multivalency in binding of short linear substrate motifs to the APC/C” (Nature Communications, 2022)
Read-outs that look alike come from different tables or passages of the source. Blank lines part the entries; values can stand above or below the molecule they belong to. Where a SMILES comes first, the peptide text is derived from it.

Columns and labels:
[1] = molecular target: T1, Cdh1 WD40 domain (yeast) (Saccharomyces cerevisiae, UniProt P53197); assay: Fluorescence anisotropy, 10 nM Cy5-labeled degron peptide, yeast Cdh1 WD40; assay type: binding
T1 construct: the WD40 domains of yeast Cdh1 (aa 241–550; pNH144); 2xStrep-Tag II (N); made in house; host or cells: Sf9 insect cells (baculovirus)
T1 sequence (P53197 241-550): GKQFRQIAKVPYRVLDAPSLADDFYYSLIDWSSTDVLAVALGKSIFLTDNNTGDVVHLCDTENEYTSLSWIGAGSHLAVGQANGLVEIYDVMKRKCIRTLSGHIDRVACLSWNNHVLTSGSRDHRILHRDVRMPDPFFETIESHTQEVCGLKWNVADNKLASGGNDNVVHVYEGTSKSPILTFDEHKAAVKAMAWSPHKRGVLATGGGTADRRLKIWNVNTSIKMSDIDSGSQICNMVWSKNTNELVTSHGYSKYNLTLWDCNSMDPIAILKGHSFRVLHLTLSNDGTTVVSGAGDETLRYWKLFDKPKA
Description: To determine the affinities of APC/C degrons for their binding sites, we first used conventional equilibrium binding assays of degron peptide binding to the activator. We used the baculovirus system to produce the WD40 domain of Cdh1 from the budding yeast Saccharomyces cerevisiae and measured fluorescence anisotropy to assess the binding of fluorescently-tagged degron peptides at increasing activator concentrations. The WD40 domain of yeast Cdc20 could not be expressed and was not studied.
(§1) Activators were cloned into the pFastBac HT A vector, with an N-terminal 2xStrep-Tag II. For some experiments, we constructed vectors for expression of the WD40 domains of yeast Cdh1 (aa 241–550; pNH144), human Cdh1 (aa 165–484; pNH164), or human Cdc20 (aa 162–484; pNH188). For SMOR, a C-terminal GFP tag was added. Bacmid plasmids are listed in Supplementary Table 3. Plasmids were transformed into DH10Bac cells, and purified Bacmid was used to transfect Sf9 cells to generate P1 baculovirus, which was used to generate P2 virus. SF9 cells were infected with the P2 virus for 48 h. Flash-frozen pellets were lysed by sonication or high-pressure homogenization in lysis buffer B (50 mM Tris-HCl pH 8, 150 mM KCl, 0.5 mM EDTA, 1 mM DTT, 10% Glycerol, EDTA-free protease inhibitor tablet, 1 µg ml^−1 pepstatin A). After the lysate was applied to the StrepTrap column, the column was washed with wash buffer B (lysis buffer B lacking protease inhibitors) and eluted in the same buffer containing 2.5 mM desthiobiotin.
Fluorescent degron peptides carried a C-terminal Cy5 label (CPC Scientific) and are listed in Supplementary Table 4. For anisotropy experiments, 10 nM fluorescent peptide was mixed with various concentrations of purified Cdh1 WD40 in wash buffer B at room temperature for 1 min, which we determined was sufficient for the binding reaction to reach equilibrium. Fluorescence was measured on a K2 Multifrequency Fluorometer at 25 °C. All Cy5-labeled peptides were excited with polarized light at 635 nm and emission was detected using a 700/75 nm bandpass filter (ET series, Chroma). […] Data were fitted to one-site equilibrium binding using GraphPad Prism version 8.4 to determine KD. Results were the same when peptide binding was measured in the buffer used in SMOR assays (buffer C, below).

[2] = tested on: Cdc20; conditions: cited from earlier work
Description: This specificity raises the exciting possibility of activator-specific targeted protein degradation as a therapeutic application.

[3] = molecular target: T2, APC/C^apo (Saccharomyces cerevisiae, UniProt P38042+P53068); assay: SMOR assay, yeast APC/C^apo (no activator); assay type: binding
T2 construct: APC/C was purified from yeast cells; made in house; host or cells: S. cerevisiae W303 strain NHY13 (Cdc16-TAP, Apc1-GFP, cdh1 deleted)
Experimental: Yeast strains were derivatives of W303 and are listed in Supplementary Table 2. For APC/C purification, we used a strain carrying Cdc16-TAP and lacking Cdh1 (DOM1126); in most experiments, the strain also carried Apc1-GFP (NHY13). Yeast were grown in YPD media to OD600 = 0.8, collected and flash-frozen. Cells were lysed by bead beating in lysis buffer A (50 mM HEPES pH 7.5, 150 mM KCl, 10% glycerol, 0.2% Triton X-100, 63 µM B-glycerophosphate, 48 µM sodium fluoride, 1 µg ml^−1 pepstatin A, 1 µg ml^−1 leupeptin, 1 µg ml^−1 aprotinin, 1 mM PMSF, 1 mM DTT, 0.5 mM EDTA) and APC/C was purified using magnetic IgG beads. The beads were washed using wash buffer A (20 mM HEPES pH 7.5, 150 mM KCl, 10% Glycerol, 0.05% Triton X-100). After incubation with purified Cdh1 or Cdc20, the APC/C was cleaved off the beads with TEV protease in wash buffer A with 0.05% Tween-20 (for single-molecule studies) or 0.05% Triton X-100 (for ensemble assays such as ubiquitylation) and used immediately.
(§2) For all SMOR experiments, 24 × 50 mm high precision glass coverslips (Bioscience Tools) and drilled microscope slides were passivated with a combination of PEG and PEG-biotin (coverslips) or PEG only (slides) following a previously published protocol for SiMPull[31]. Reaction chambers (~20 µl) were created using double-sided tape and epoxy. Protein was immobilized on the surface with 0.2 mg ml^−1 NeutrAvidin in buffer C (20 mM HEPES pH 7.5, 150 mM KCl, 10% glycerol, 0.05% Tween-20, 1 mM DTT). Excess NeutrAvidin was washed away and incubated with either biotin-conjugated mouse monoclonal anti-Strep-Tag II antibody (LSBio, Cat. No. LS-C203632-100) or biotin-conjugated rabbit polyclonal anti-GFP antibody (Rockland, Cat. No. 600-406-215) diluted in buffer C + BSA (0.1 mg ml^−1; Molecular Biology Grade Bovine Serum Albumin). Activator WD40 and activated APC/C (typically 50 µl containing about 65 ng APC/C, of which only a small fraction is immobilized on the glass) were immobilized using anti-Strep-Tag II, while APC/C alone was immobilized with anti-GFP. SMOR results were similar when performed in the buffer (wash buffer B) used in polarization anisotropy.
(§3) To capture dynamic protein–protein interactions, dye-labeled substrate diluted in buffer C + BSA was added to the chamber containing immobilized proteins. Interactions were imaged by TIRF microscopy as described below. For optimal signal-to-noise ratio, peptide concentration was no greater than 1 nM. Protein substrates included Hsl1 aa 667–872 and a C-terminal HaloTag followed by a TAP tag, and were produced by translation in rabbit reticulocyte lysates using TnT Quick Coupled Transcription/Translation System (Promega) (see Supplementary Table 5 for plasmids). Protein was purified with magnetic IgG beads and labeled on the bead with JF549 or JF646 dye so that unbound dye could be washed away. Purified dye-labeled protein was then cleaved from the beads using TEV protease. Before adding substrate to the reaction chamber, oxygen scavenging reagents were added (10 nM protocatechuate-3,4-dioxygenase, 2.5 mM protocatechuic acid, and 1 mM Trolox)[41]. A detailed description of the SMOR analysis pipeline is found in Supplementary Note 1.
(§4) Microscopy was performed with a Nikon Eclipse TE2000-E with Perfect Focus with a 100 × 1.49na oil, Apo TIRF DIC N2, 0.13-0.2, WD0.12 objective. Movies were recorded using the Andor iXon DU-897E-CSO. For visualizing GFP-tagged protein, a 491 nm laser was used with an ET525/50 (Chroma) filter for emission. For visualizing JF549-labeled substrate, a 561 nm laser was used with an ET595/50 (Chroma) filter for emission. For visualizing all Cy5-labeled peptides and JF646-labeled substrates, a 640 nm laser was used with an ET685/70 filter (Chroma) for emission. Initially, for each substrate tested, we acquired movies at multiple intervals to deduce the optimal interval to decrease bleaching. µManager version 2.0 was used to control the microscope and record time-lapse movies.

[4] = molecular target: T3, Cdh1^WD40 (Saccharomyces cerevisiae, UniProt P53197); assay: SMOR assay (single-molecule off-rate, TIRF), yeast Cdh1^WD40; assay type: binding
T3 construct: the WD40 domains of yeast Cdh1 (aa 241–550; pNH144); made in house; host or cells: Sf9 insect cells (baculovirus)
T3 sequence (P53197 241-550): T1 sequence (P53197 241-550)
Experimental: as §1, §2, §3
as §4, with “Initially, for each substrate tested, we acquired movies at multiple intervals to deduce the optimal interval to decrease bleaching. µManager version 2.0 was used to control the microscope and record time-lapse movies.” left out

[5] = molecular target: T4, hCdh1^WD40 (Homo sapiens, UniProt Q9UM11); assay: SMOR assay, human Cdh1 WD40; assay type: binding; conditions: human Cdh1, D-box binding; read-out: inferred kon
T4 construct: human Cdh1 (aa 165–484; pNH164); made in house; host or cells: Sf9 insect cells (baculovirus)
Experimental: as §1, §2, §3
as §4, with “Initially, for each substrate tested, we acquired movies at multiple intervals to deduce the optimal interval to decrease bleaching. µManager version 2.0 was used to control the microscope and record time-lapse movies.” left out

[6] = mean of the listed replicates, source data of Fig. 1a (there μM), read-out: Mean Kd
[7] = replicate 2019-07-08, source data of Fig. 1a (there μM), read-out: Kd
[8] = replicate 2021-11-10, source data of Fig. 1a (there μM), read-out: Kd

T4 sequence (Q9UM11 165-484): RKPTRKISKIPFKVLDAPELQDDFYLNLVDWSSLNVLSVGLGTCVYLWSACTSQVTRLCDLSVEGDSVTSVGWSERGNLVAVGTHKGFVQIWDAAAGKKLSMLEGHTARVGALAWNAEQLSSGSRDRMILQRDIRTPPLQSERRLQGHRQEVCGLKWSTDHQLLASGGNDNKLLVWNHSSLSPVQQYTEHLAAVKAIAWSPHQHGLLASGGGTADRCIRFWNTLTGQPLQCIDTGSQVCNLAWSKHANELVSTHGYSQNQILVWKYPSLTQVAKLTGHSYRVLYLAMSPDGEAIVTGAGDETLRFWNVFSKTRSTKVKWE

Kd [1, 6]: 3.37 µM | Kd [1, 7]: 3.41 µM | Kd [1, 8]: 3.34 µM
Molecule: GVSTNKENEGPEYPTKIE-K(Cy5) [Hsl1 KEN and dark D box, Cy5 Hsl1 KEN peptide (10 nM) in presence of unlabeled Hsl1 D box (100 µM)]

Molecule: Cc1ncc([N+](=O)[O-])n1CCOC(=O)NC(Nc1ncccn1)C(Cl)(Cl)Cl (centres unmarked) [Apcin]
activator specificity (in words) [2]: Cdc20 specificity

Kd [1, 6]: 1.12 µM | Kd [1, 8]: 1.04 µM
Molecule: EQKPKRAALSDITNSFNKMN-K(Cy5) [Hsl1 D box and dark KEN, Cy5 Hsl1 D box peptide (10 nM) in presence of unlabeled Hsl1 KEN (100 µM)]

Kd [1, 6]: 2.86 µM | Kd [1, 8]: 2.16 µM | Kd ([1]; replicate 2021-11-15, source data of Fig. 1a (there μM), read-out: Kd): 3.56 µM | Kd ([1]; representative single experiment, Fig. 1c, dark = unlabeled peptide 100 µM, read-out: KD): 3.6 µM
Molecule: EQKPKRAALSDITNSFNKMN-K(Cy5) [Hsl1 D box and dark KEN mutant, Cy5 Hsl1 D box peptide (10 nM) in presence of unlabeled mutated Hsl1 KEN (100 µM)]

Dwell Time ([3]; Supplementary Table 1, replicate 1 (movie listed first)): 0.616 ± 0.019 s | Dwell Time ([3]; Supplementary Table 1, replicate 2 (movie listed second)): 0.557 ± 0.011 s | mean dwell time ([3]; representative movie, ± SE, buffer C + BSA): 0.616 ± 0.02 s
Molecule: (Cy5)-SLIFDAFNQIR [Cdh1 IR, Cy5-labeled yeast Cdh1 C-terminal IR peptide]

Kd [1, 6]: 3.48 µM | kon ([4]; inferred from koff and anisotropy KD, yeast Cdh1, read-out: association rate constant kon): 800000 M⁻¹ s⁻¹ | koff ([4]; reciprocal of mean dwell time, read-out: dissociation rate constant koff): 2.8 s⁻¹ | kon [5]: 100000 M⁻¹ s⁻¹
Molecule: CC[C@H](C)[C@H](NC(=O)[C@H](CC(=O)O)NC(=O)[C@H](CO)NC(=O)[C@H](CC(C)C)NC(=O)[C@H](C)NC(=O)[C@H](C)NC(=O)[C@H](CCCNC(=N)N)NC(=O)[C@H](CCCCN)NC(=O)[C@@H]1CCCN1C(=O)[C@H](CCCCN)NC(=O)[C@H](CCC(N)=O)NC(=O)[C@@H](N)CCC(=O)O)C(=O)N[C@H](C(=O)N[C@@H](CC(N)=O)C(=O)N[C@@H](CO)C(=O)N[C@@H](Cc1ccccc1)C(=O)N[C@@H](CC(N)=O)C(=O)N[C@@H](CCCCN)C(=O)N[C@@H](CCSC)C(=O)N[C@@H](CC(N)=O)C(=O)N[C@@H](CCCCN)C(=O)O)[C@@H](C)O [Hsl1 D box] (H-EQKPKRAALSDITNSFNKMNK-OH)

Kd [1, 6]: 10.9 µM | Kd [1, 7]: 6.35 µM | Kd [1, 8]: 15.5 µM
Molecule: GVSTNKENEGPEYPTKIE-K(Cy5) [Hsl1 KEN and dark D box mutant, Cy5 Hsl1 KEN peptide (10 nM) in presence of unlabeled mutated Hsl1 D box (100 µM)]
